Data reported in US12723063B2, “GIPR-agonist compounds” (Eli Lilly and Company, priority 2019, dated 2026).
*1 amine or outer side, *2 acyl side, *3 side chain or, on linkers, in order; H or OH if unused. Where a SMILES comes first, the peptide text is derived from it. Side-chain parts run from the residue outwards. [ ]: non-standard residue; d: D form. The star is where a group is joined. C20 diacid = O=C(O)CCCCCCCCCCCCCCCCCCC(=O)*; C18 diacid = O=C(O)CCCCCCCCCCCCCCCCC(=O)*; γGlu = O=C(O)[C@H](CCC(=O)[*:2])N[*:1]; 4Pal = N[C@@H](Cc1ccncc1)C(=O)O; αMeL = CC(C)C[C@](C)(N)C(=O)O; Iva = CC[C@](C)(N)C(=O)O; Orn = NCCC[C@H](N)C(=O)O; AEEA = NCCOCCOCC(=O)O; Aib = CC(C)(N)C(=O)O

Experiments:
Assay in all cases: cAMP functional assay (HTRF) in HEK293 cells in presence of 0.1% casein
Format in all cases: cell-based
[1] = target: T1, human GLP-1 receptor (GLP-1R) (Homo sapiens, UniProt P43220); settings: HEK293 cells expressing human GLP-1R, geometric mean, read-out: hGLP1R cAMP Rel EC50 nM (SEM, n)
T1 construct: expressed in transfected cells; host or cells: HEK293
T1 sequence (P43220 24-463): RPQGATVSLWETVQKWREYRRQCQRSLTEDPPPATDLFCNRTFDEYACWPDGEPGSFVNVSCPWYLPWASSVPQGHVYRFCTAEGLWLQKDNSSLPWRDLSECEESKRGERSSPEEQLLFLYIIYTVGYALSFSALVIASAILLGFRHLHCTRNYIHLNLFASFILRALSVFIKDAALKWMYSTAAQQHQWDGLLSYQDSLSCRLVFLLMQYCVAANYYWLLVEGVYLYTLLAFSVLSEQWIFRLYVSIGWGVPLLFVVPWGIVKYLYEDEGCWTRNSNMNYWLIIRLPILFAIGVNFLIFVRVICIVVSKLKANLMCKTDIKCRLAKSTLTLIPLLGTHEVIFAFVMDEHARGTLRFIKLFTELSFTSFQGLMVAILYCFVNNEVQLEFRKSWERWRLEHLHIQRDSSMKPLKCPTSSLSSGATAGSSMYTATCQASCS

[2] = target: T2, human glucagon receptor (GcgR) (Homo sapiens, UniProt P47871); settings: HEK293 cells expressing human GcgR, geometric mean, read-out: hGcgR cAMP Rel EC50 nM (SEM, n)
T2 construct: expressed in transfected cells; host or cells: HEK293
T2 sequence (P47871 26-477): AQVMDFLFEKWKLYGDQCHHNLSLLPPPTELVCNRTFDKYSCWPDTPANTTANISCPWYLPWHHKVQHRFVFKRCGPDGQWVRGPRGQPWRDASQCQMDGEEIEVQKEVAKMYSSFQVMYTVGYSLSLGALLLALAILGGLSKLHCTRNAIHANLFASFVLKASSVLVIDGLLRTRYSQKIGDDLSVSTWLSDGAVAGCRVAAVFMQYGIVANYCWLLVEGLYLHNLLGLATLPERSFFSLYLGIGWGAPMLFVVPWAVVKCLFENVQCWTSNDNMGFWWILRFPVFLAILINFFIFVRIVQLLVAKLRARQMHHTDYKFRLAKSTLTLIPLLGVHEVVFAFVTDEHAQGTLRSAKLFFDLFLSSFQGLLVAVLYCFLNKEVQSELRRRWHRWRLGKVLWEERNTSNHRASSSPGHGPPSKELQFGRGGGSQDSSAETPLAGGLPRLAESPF

[3] = target: T3, human glucose-dependent insulinotropic peptide receptor (GIPR) (Homo sapiens, UniProt P48546); settings: HEK293 cells expressing human GIPR, geometric mean, read-out: hGIPR cAMP Rel EC50 nM (SEM, n)
T3 construct: expressed in transfected cells; host or cells: HEK293
T3 sequence (P48546 22-466): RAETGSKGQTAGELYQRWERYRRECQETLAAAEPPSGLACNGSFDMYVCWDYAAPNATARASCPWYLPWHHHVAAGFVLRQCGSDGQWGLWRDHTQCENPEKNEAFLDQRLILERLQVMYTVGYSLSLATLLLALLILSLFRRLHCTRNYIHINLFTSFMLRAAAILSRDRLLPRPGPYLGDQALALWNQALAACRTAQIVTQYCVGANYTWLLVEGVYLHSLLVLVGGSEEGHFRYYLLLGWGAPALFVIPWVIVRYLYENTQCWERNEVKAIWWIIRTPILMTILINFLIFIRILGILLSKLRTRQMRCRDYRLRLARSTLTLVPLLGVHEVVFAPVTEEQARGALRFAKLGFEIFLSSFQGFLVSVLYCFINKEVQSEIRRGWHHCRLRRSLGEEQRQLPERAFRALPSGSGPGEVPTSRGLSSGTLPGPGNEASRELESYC

For `CC[C@H](C)[C@H](NC(=O)[C@H](Cc1ccccc1)NC(=O)[C@@H](NC(=O)CNC(=O)[C@H](CCC(=O)O)NC(=O)C(C)(C)NC(=O)[C@@H](N)Cc1ccc(O)cc1)[C@@H](C)O)C(=O)N[C@@H](CO)C(=O)N[C@@H](CC(=O)O)C(=O)N[C@@H](Cc1ccc(O)cc1)C(=O)N[C@@H](CO)C(=O)N[C@H](C(=O)N[C@@](C)(CC(C)C)C(=O)N[C@@H](CC(C)C)C(=O)N[C@@H](CC(=O)O)C(=O)N[C@@H](CCC(=O)O)C(=O)N[C@@H](CCCCNC(=O)COCCOCCNC(=O)COCCOCCNC(=O)CC[C@H](NC(=O)CCCCCCCCCCCCCCCCCCC(=O)O)C(=O)O)C(=O)N[C@@H](Cc1c[nH]cn1)C(=O)N[C@@H](CCC(N)=O)C(=O)NC(C)(C)C(=O)N[C@@H](CC(=O)O)C(=O)N[C@@H](Cc1ccccc1)C(=O)N[C@H](C(=O)N[C@@H](CCC(=O)O)C(=O)N[C@@H](Cc1ccncc1)C(=O)N[C@@H](CC(C)C)C(=O)N[C@@H](CC(C)C)C(=O)N[C@@H](C)C(=O)N[C@H](C(=O)NCC(=O)N1CCC[C@H]1C(=O)N[C@@H](CO)C(=O)N[C@@H](CO)C(=O)NCC(=O)N[C@@H](C)C(=O)N1CCC[C@H]1C(=O)N1CCC[C@H]1C(=O)N1CCC[C@H]1C(=O)N[C@@H](CO)C(N)=O)[C@@H](C)O)C(C)C)[C@@H](C)CC` [Example 83] (H-Y[Aib]EGTFISDYSI[αMeL]LDEK([AEEA-AEEA-γGlu-C20 diacid])HQ[Aib]DFVE[4Pal]LLATGPSSGAPPPS-NH2), the EC50 [1] was greater than 5000 nM, the EC50 [2] was greater than 5000 nM and the EC50 [3] was 0.0432 nM.

`CC[C@H](C)[C@H](NC(=O)[C@H](CO)NC(=O)[C@H](Cc1ccc(O)cc1)NC(=O)[C@H](CC(=O)O)NC(=O)[C@H](CO)NC(=O)[C@@H](NC(=O)[C@](C)(CC)NC(=O)[C@@H](NC(=O)CNC(=O)[C@H](CCC(=O)O)NC(=O)C(C)(C)NC(=O)[C@@H](N)Cc1ccc(O)cc1)[C@@H](C)O)[C@@H](C)CC)C(=O)N[C@@](C)(CC(C)C)C(=O)N[C@@H](CC(C)C)C(=O)N[C@@H](CC(=O)O)C(=O)N[C@@H](CCCN)C(=O)N[C@@H](CCCCNC(=O)COCCOCCNC(=O)COCCOCCNC(=O)CC[C@H](NC(=O)CCCCCCCCCCCCCCCCCCC(=O)O)C(=O)O)C(=O)N[C@@H](Cc1c[nH]cn1)C(=O)N[C@@H](CCC(N)=O)C(=O)NC(C)(C)C(=O)N[C@@H](CC(=O)O)C(=O)N[C@@H](Cc1ccccc1)C(=O)N[C@H](C(=O)N[C@@H](CCC(=O)O)C(=O)N[C@@H](Cc1ccncc1)C(=O)N[C@@H](CC(C)C)C(=O)N[C@@H](CC(C)C)C(=O)N[C@@H](CCC(=O)O)C(=O)NCC(=O)NCC(=O)N1CCC[C@H]1C(=O)N[C@@H](CO)C(=O)N[C@@H](CO)C(=O)NCC(=O)N[C@@H](C)C(=O)N1CCC[C@H]1C(=O)N1CCC[C@H]1C(=O)N1CCC[C@H]1C(=O)N[C@@H](CO)C(N)=O)C(C)C` [Example 76] (H-Y[Aib]EGT[Iva]ISDYSI[αMeL]LD[Orn]K([AEEA-AEEA-γGlu-C20 diacid])HQ[Aib]DFVE[4Pal]LLEGGPSSGAPPPS-NH2) was tested, and the EC50 [1] was greater than 5000 nM, the EC50 [2] was 1200 nM and the EC50 [3] was 0.0154 nM.

`CC[C@H](C)[C@H](NC(=O)[C@H](CCCCN)NC(=O)[C@H](CC(=O)O)NC(=O)[C@H](CC(C)C)NC(=O)[C@](C)(CC(C)C)NC(=O)[C@@H](NC(=O)[C@H](CO)NC(=O)[C@H](Cc1ccc(O)cc1)NC(=O)[C@H](CC(=O)O)NC(=O)[C@H](CO)NC(=O)[C@@H](NC(=O)[C@H](Cc1ccccc1)NC(=O)[C@@H](NC(=O)CNC(=O)[C@H](CCC(=O)O)NC(=O)C(C)(C)NC(=O)[C@@H](N)Cc1ccc(O)cc1)[C@@H](C)O)[C@@H](C)CC)[C@@H](C)CC)C(=O)N[C@@H](Cc1c[nH]cn1)C(=O)N[C@@H](CCC(N)=O)C(=O)NC(C)(C)C(=O)N[C@@H](CC(=O)O)C(=O)N[C@@H](Cc1ccccc1)C(=O)N[C@H](C(=O)N[C@@H](CCC(=O)O)C(=O)N[C@@H](Cc1ccc(O)cc1)C(=O)N[C@@H](CCCCNC(=O)COCCOCCNC(=O)COCCOCCNC(=O)CC[C@H](NC(=O)CCCCCCCCCCCCCCCCCCC(=O)O)C(=O)O)C(=O)N[C@@H](CC(C)C)C(=O)N[C@@H](CCC(=O)O)C(=O)NCC(=O)NCC(=O)N1CCC[C@H]1C(=O)N[C@@H](CO)C(=O)N[C@@H](CO)C(=O)NCC(=O)N[C@@H](C)C(=O)N1CCC[C@H]1C(=O)N1CCC[C@H]1C(=O)N1CCC[C@H]1C(=O)N[C@@H](CO)C(N)=O)C(C)C` [Example 5] showed an EC50 [1] greater than 5000 nM, an EC50 [2] greater than 5000 nM and an EC50 [3] of 0.0148 nM.

With `CC[C@H](C)[C@H](NC(=O)[C@H](CCCN)NC(=O)[C@H](CC(=O)O)NC(=O)[C@H](CC(C)C)NC(=O)[C@](C)(CC(C)C)NC(=O)[C@@H](NC(=O)[C@H](CO)NC(=O)[C@H](Cc1ccc(O)cc1)NC(=O)[C@H](CC(=O)O)NC(=O)[C@H](CO)NC(=O)[C@@H](NC(=O)[C@H](Cc1ccccc1)NC(=O)[C@@H](NC(=O)CNC(=O)[C@H](CCC(=O)O)NC(=O)C(C)(C)NC(=O)[C@@H](N)Cc1ccc(O)cc1)[C@@H](C)O)[C@@H](C)CC)[C@@H](C)CC)C(=O)N[C@@H](Cc1c[nH]cn1)C(=O)N[C@@H](CCC(N)=O)C(=O)NC(C)(C)C(=O)N[C@@H](CC(=O)O)C(=O)N[C@@H](Cc1ccccc1)C(=O)N[C@H](C(=O)N[C@@H](CCC(=O)O)C(=O)N[C@@H](Cc1ccncc1)C(=O)N[C@@H](CCCCNC(=O)COCCOCCNC(=O)COCCOCCNC(=O)CC[C@H](NC(=O)CCCCCCCCCCCCCCCCCCC(=O)O)C(=O)O)C(=O)N[C@@H](CC(C)C)C(=O)N[C@@H](CCC(=O)O)C(=O)NCC(=O)NCC(=O)N1CCC[C@H]1C(=O)N[C@@H](CO)C(=O)N[C@@H](CO)C(=O)NCC(=O)N[C@@H](C)C(=O)N1CCC[C@H]1C(=O)N1CCC[C@H]1C(=O)N1CCC[C@H]1C(=O)N[C@@H](CO)C(N)=O)C(C)C` [Example 108] (H-Y[Aib]EGTFISDYSI[αMeL]LD[Orn]IHQ[Aib]DFVE[4Pal]K([AEEA-AEEA-γGlu-C20 diacid])LEGGPSSGAPPPS-NH2) the EC50 [1] was greater than 5000 nM, the EC50 [2] was greater than 5000 nM and the EC50 [3] was 0.0088 nM.

For `CC[C@H](C)[C@H](NC(=O)[C@H](CO)NC(=O)[C@H](Cc1ccc(O)cc1)NC(=O)[C@H](CC(=O)O)NC(=O)[C@H](CO)NC(=O)[C@@H](NC(=O)[C@H](Cc1ccccc1)NC(=O)[C@@H](NC(=O)CNC(=O)[C@H](CCC(=O)O)NC(=O)[C@@H](C)NC(=O)[C@@H](N)Cc1ccc(O)cc1)[C@@H](C)O)[C@@H](C)CC)C(=O)N[C@@H](CC(C)C)C(=O)N[C@@H](CC(C)C)C(=O)N[C@@H](CC(=O)O)C(=O)N[C@@H](CCCCN)C(=O)N[C@@H](CCCCNC(=O)COCCOCCNC(=O)COCCOCCNC(=O)CC[C@H](NC(=O)CCCCCCCCCCCCCCCCC(=O)O)C(=O)O)C(=O)N[C@@H](C)C(=O)N[C@@H](CCC(N)=O)C(=O)NC(C)(C)C(=O)N[C@@H](CC(=O)O)C(=O)N[C@@H](Cc1ccccc1)C(=O)N[C@H](C(=O)N[C@@H](CC(N)=O)C(=O)N[C@@H](Cc1c[nH]c2ccccc12)C(=O)N[C@@H](CC(C)C)C(=O)N[C@@H](CC(C)C)C(=O)N[C@@H](CCC(=O)O)C(=O)N[C@@H](CCC(N)=O)C(=O)NCC(=O)N1CCC[C@H]1C(=O)N[C@@H](CO)C(=O)N[C@@H](CO)C(=O)NCC(=O)N[C@@H](C)C(=O)N1CCC[C@H]1C(=O)N1CCC[C@H]1C(=O)N1CCC[C@H]1C(=O)N[C@@H](CO)C(N)=O)C(C)C` [Example 17] (H-Y[dA]EGTFISDYSILLDKK([AEEA-AEEA-γGlu-C18 diacid])AQ[Aib]DFVNWLLEQGPSSGAPPPS-NH2), the EC50 [1] was greater than 5000 nM, the EC50 [2] was greater than 5000 nM and the EC50 [3] was 0.0135 nM.

Work on `CC[C@H](C)[C@H](NC(=O)[C@H](Cc1ccccc1)NC(=O)[C@@H](NC(=O)CNC(=O)[C@H](CCC(=O)O)NC(=O)C(C)(C)NC(=O)[C@@H](N)Cc1ccc(O)cc1)[C@@H](C)O)C(=O)N[C@@H](CO)C(=O)N[C@@H](CC(=O)O)C(=O)N[C@@H](Cc1ccc(O)cc1)C(=O)N[C@@H](CO)C(=O)N[C@H](C(=O)N[C@@](C)(CC(C)C)C(=O)N[C@@H](CC(C)C)C(=O)N[C@@H](CC(=O)O)C(=O)N[C@@H](CCCN)C(=O)N[C@@H](CCCCNC(=O)COCCOCCNC(=O)COCCOCCNC(=O)CC[C@H](NC(=O)CCCCCCCCCCCCCCCCCCC(=O)O)C(=O)O)C(=O)N[C@@H](Cc1c[nH]cn1)C(=O)N[C@@H](CCC(N)=O)C(=O)NC(C)(C)C(=O)N[C@@H](CC(=O)O)C(=O)N[C@@H](Cc1ccccc1)C(=O)N[C@H](C(=O)N[C@@H](CCC(=O)O)C(=O)N[C@@H](Cc1ccncc1)C(=O)N[C@@H](CC(C)C)C(=O)N[C@@H](CC(C)C)C(=O)N[C@@H](CCC(=O)O)C(=O)N[C@@H](CCC(N)=O)C(=O)NCC(=O)N1CCC[C@H]1C(=O)N[C@@H](CO)C(=O)N[C@@H](CO)C(=O)NCC(=O)N[C@@H](C)C(=O)N1CCC[C@H]1C(=O)N1CCC[C@H]1C(=O)N1CCC[C@H]1C(=O)N[C@@H](CO)C(N)=O)C(C)C)[C@@H](C)CC` [Example 81] (H-Y[Aib]EGTFISDYSI[αMeL]LD[Orn]K([AEEA-AEEA-γGlu-C20 diacid])HQ[Aib]DFVE[4Pal]LLEQGPSSGAPPPS-NH2) yielded an EC50 [1] greater than 5000 nM, an EC50 [2] greater than 5000 nM and an EC50 [3] of 0.0282 nM.
